Source: patent US12023335B2, “Method for treating pancreatic cancer” (PTC THERAPEUTICS, INC., priority 2018, dated 2024)

What was measured:
P-glycoprotein = target: T1, P-glycoprotein (Homo sapiens, UniProt P08183); experiment: P-glycoprotein substrate activity experiment (CC50 ratio MDCK-P-gp vs MDCK-WT); assay type: in vitro ADME; conditions: 72 hours, CellTiter-Glo (FIG. 4b)
T1 construct: host or cells: MDCKII-mdr1 (canine kidney MDCKII cells; MDCKII-wt as control)
Procedure: MDCKII-mdr1 and MDCKII-wt cells were purchased from the Netherlands Cancer Institute, NKI-AVL. The cells were cultivated in Dulbecco's modified essential medium (DMEM), supplemented with 10% FBS and 1% Penn-Strep, and used between passage 3-9. Cells were seeded at a density of 3×10^3 cells/well in 96-well tissue culture treated plates. After 4 hours to allow cells to attach, cells were treated with test compound in the presence or absence of the P-glycoprotein inhibitor Valspodar. The plates were incubated at 37° C., 5% CO2 for 72 hours and ATP was measured vialuminescence using CellTiter-Glo® reagent (Promega). (FIG. 4b)

advanced PDA = conditions: cited from earlier work
PDA tumors in KPC mice = experiment: KPC intervention/survival study; assay type: in vivo; conditions: KPC mice (FIGS. 9a, 9b)
Procedure: Tumor formation in KPC mice was monitored by weekly palpation until the detection of a mass. Upon positive palpation, the mass was monitored by twice weekly ultrasound until the tumor reached an enrollable size of 4-7 mm average diameter. Once enrollable, KPC mice were randomly enrolled into a treatment arm of the intervention study. Mice were treated with vehicle, Compound 1 (17 mg/kg, PO, b.i.w.), gemcitabine alone (100 mg/kg, IP, b.i.w.), or Compound 1+gemcitabine. Mice receiving Compound 1 also received gemcitabine vehicle (saline, IP, b.i.w.) at a volume (μL) of 50× body weight (g). Mice receiving gemcitabine also received Compound 1 vehicle (0.5% hydroxypropylmethylcellulose with 0.1% Tween80 (w/v), PO, b.i.w.) at a volume (μL) of 5.7× body weight (g). All drug and vehicle combinations were administered simultaneously.
Tumor ultrasonography and volume quantification were carried out as described in Sastra S A, Olive K P, Quantification of murine pancreatic tumors by high-resolution ultrasound, Methods Mol Biol 2013; 980:249-66. […]
To prepare samples for immunohistochemistry, tissues were first fixed overnight in 10% phosphate-buffered formalin and then stored in 70% ethanol for long-term storage. […] Next, antigen retrieval was carried out in an experimentally determined, antibody-specific antigen retrieval buffer (usually 10 mM citrate, pH 6.0 or 10 mM Tris, pH 10.0). […]

T1 sequence (P08183 whole entry): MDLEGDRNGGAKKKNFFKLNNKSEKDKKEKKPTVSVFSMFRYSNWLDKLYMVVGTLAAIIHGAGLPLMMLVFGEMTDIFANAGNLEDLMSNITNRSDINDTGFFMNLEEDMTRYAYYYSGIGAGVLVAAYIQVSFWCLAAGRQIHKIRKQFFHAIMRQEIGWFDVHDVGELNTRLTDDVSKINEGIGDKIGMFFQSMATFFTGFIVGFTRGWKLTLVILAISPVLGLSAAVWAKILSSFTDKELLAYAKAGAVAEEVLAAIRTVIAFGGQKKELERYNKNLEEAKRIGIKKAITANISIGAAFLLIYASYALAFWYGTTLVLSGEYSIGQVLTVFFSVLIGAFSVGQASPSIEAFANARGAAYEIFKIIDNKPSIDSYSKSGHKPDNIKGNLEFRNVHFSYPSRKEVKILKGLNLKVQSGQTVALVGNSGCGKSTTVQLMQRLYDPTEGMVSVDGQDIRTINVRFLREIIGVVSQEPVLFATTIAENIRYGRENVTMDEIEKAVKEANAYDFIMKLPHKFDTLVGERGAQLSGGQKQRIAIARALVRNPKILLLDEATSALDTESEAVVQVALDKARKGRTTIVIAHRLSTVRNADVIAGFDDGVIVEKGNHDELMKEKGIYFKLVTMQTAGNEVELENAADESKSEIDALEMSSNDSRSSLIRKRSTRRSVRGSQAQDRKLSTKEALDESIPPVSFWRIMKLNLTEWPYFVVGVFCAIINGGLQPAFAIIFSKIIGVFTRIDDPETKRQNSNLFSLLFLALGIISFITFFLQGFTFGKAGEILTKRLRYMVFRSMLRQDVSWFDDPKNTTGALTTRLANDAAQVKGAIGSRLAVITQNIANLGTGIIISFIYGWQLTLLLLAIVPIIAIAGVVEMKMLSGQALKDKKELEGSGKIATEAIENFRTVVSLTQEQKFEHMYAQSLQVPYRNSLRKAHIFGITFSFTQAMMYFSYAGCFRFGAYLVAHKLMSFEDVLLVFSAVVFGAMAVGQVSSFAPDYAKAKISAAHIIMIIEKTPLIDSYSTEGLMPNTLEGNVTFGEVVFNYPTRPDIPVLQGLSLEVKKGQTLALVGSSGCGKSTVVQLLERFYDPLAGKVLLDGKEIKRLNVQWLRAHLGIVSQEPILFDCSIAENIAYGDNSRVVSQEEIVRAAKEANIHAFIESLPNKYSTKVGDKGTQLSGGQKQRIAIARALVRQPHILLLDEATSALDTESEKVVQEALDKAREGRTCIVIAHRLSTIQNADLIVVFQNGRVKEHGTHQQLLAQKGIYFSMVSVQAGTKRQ

With `Cc1nc2cc(F)c(F)cc2n1-c1cncc(Nc2ccc(C(F)(F)F)cc2)n1` [Compound 2, 6-(5,6-difluoro-2-methyl-1H-benzo[d]imidazol-1-yl)-N-(4-(trifluoromethyl)phenyl)pyrazin-2-amine, reference compound] the “PGP substrate activity (ratio of CC50 values MDCK-P-gp vs MDCK-WT)” value (P-glycoprotein) was “do not function as a PGP substrate”.

In the case of `C#Cc1cccc(Nc2ncnc3cc(OCCOC)c(OCCOC)cc23)c1` [Tarceva, erlotinib], the “additional survival benefit, average” value (advanced PDA; when combined with gemcitabine) is listed as 10 days.

For `CN(C)CCCN1c2ccccc2Sc2ccc(Cl)cc21` [chlorpromazine, reference compound], the “PGP substrate activity (ratio of CC50 values MDCK-P-gp vs MDCK-WT)” value (P-glycoprotein) was “do not function as a PGP substrate”.

For `Nc1ccn([C@@H]2O[C@H](CO)[C@@H](O)C2(F)F)c(=O)n1` [gemcitabine, reference compound], the “apoptotic cell population in stained tumor sections” value (PDA tumors in KPC mice) is given as “induced apoptotic cell population” and the extension of survival (advanced PDA; national standard-of-care therapy) is given as “modestly extends survival by a few weeks”.
